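Cultured in 96-well plates, cells were exposed to test compound for 48 hours across five concentrations. The concentration for 50% growth inhibition is given as GI50. TGI marks complete inhibition of growth.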
What was measured:
Test in all cases: NCI anticancer screen, dose series, 48 h
[1] = tested on: DU-145 prostate
[2] = tested on: HCC-2998 colon
[3] = tested on: HCT-116 colon
[4] = tested on: HT29 colon
[5] = tested on: KM12 colon
[6] = tested on: NCI-H522 lung
[7] = tested on: SW-620 colon
[8] = tested on: U251 CNS

Row | SMILES | TGI [1] [µM] | TGI [2] [µM] | TGI [3] [µM] | TGI [4] [µM] | TGI [5] [µM] | TGI [6] [µM] | TGI [7] [µM] | TGI [8] [µM] | GI50 [1] [µM] | GI50 [3] [µM] | GI50 [4] [µM] | GI50 [5] [µM] | GI50 [6] [µM] | GI50 [7] [µM] | GI50 [8] [µM]
1 | CC(C)(C)OC(=O)N1CCC2(CC1)C(=O)NCN2c1ccccc1 | > 100 | > 100 | > 100 | > 100 | > 100 | > 100 | > 100 | > 100 |  |  |  |  |  |  | 
2 | CC1(O)CC23CC(O)C4(O)C(CC(O)C4(C)C)C(C)(O)C2CCC1C3O (configuration not stated) | > 100 | > 100 | > 100 | > 100 | > 100 | > 100 | > 100 | > 100 |  |  |  |  |  |  | 
3 | CCOC(=O)CCC(NC(=O)c1ccc(NCc2ccc3nc(OC)c(OC)nc3c2)c2ccccc12)C(=O)OCC (configuration not stated) | > 100 | > 100 | > 100 | > 100 | > 100 | > 100 | > 100 | > 100 |  |  |  |  |  |  | 
4 | C/C(=C\C(=O)O)C(=O)N(C)c1ccccc1I | > 100 | > 100 | > 100 |  | > 100 |  | > 100 | > 100 |  |  |  |  |  |  | 
5 | CCOC(=O)CSc1nc(-c2ccc(Cl)cc2)c(C#N)c(=O)[nH]1 | > 100 | > 100 | > 100 | > 100 | > 100 | > 100 | > 100 | > 100 |  |  |  |  |  |  | 
6 | CC1CC(C)(C)CC(OCCN2CCCCC2)(c2ccccc2)C1 (configuration not stated) | 19.8 |  | 18.9 | 9.92 | 21.4 | 21.6 | 32.5 | 25.5 |  |  |  |  |  |  | 
7 | O=[N+]([O-])/C=C/c1cn(CCCCCCCCn2cc(/C=C/[N+](=O)[O-])c3ccccc32)c2ccccc12 | > 10 | > 10 | 0.396 | > 10 | > 10 | > 10 | > 10 |  |  |  |  |  |  |  | 
8 | CN=C1C=C(/N=C2/C=C(N/C(=C\C#N)C(C)(C)O)OC2(C)C)OC1(C)C | > 100 | > 100 | 69.4 | > 100 | > 100 | 69 | > 100 | > 100 |  |  |  |  |  |  | 
9 | O=[N+]([O-])C(/C=C(\Cl)[N+](=O)[O-])=C(Nc1ccccc1)Nc1ccccc1 | 31.7 | 37.2 | 4.36 | 25.7 | 24.3 | 4.55 | 11 | 27.6 |  |  |  |  |  |  | 
10 | CCOC(=O)c1c(-c2ccc(Cl)cc2)c(C#N)c(=S)n(C2OC(COC(C)=O)C(OC(C)=O)C(OC(C)=O)C2OC(C)=O)c1C (configuration not stated) | > 100 | > 100 | > 100 | > 100 | > 100 | > 100 | > 100 | > 100 |  |  |  |  |  |  | 
11 | c1ccc(CN2CCC(CNc3ncnc4ccccc34)C2)cc1 (configuration not stated) | > 100 |  | > 100 | > 100 | > 100 | > 100 | > 100 | > 100 |  |  |  |  |  |  | 
12 | CC(C)(C)[C@H]1NC(=O)CN1C(=O)OCc1ccccc1 | > 100 | > 100 | > 100 | > 100 | > 100 | > 100 | > 100 | > 100 |  |  |  |  |  |  | 
13 | CC1=NN(c2cc(Cl)c(S(=O)(=O)O)cc2Cl)C2(C1)C(Cl)C(=O)N2c1nc2ccccc2s1 (configuration not stated) | > 100 | > 100 | > 100 | > 100 | > 100 | 71.2 | > 100 | > 100 |  |  |  |  |  |  | 
14 | CC1CC[C@@]2(OC1)OC1C[C@H]3[C@@H]4CC=C5C[C@@H](OC6OC(CO)C(OC7OC(CO)C(O)C(O)C7O)C(O)C6OC6OC(C)C(O)C(O)C6O)CC[C@]5(C)[C@H]4CC[C@]3(C)C1[C@@H]2C (some centres not stated) | 0.919 | 0.89 | 2.31 | 0.951 | 1.22 | 2.93 | 1.51 | 0.923 |  |  |  |  |  |  | 
15 | CC1OC23CCCCC2C(C#N)(C#N)C1(C#N)C(=N)O3 (configuration not stated) | 66.5 | 50.1 | 36.2 | > 100 | 61.1 |  | 98.3 | 71.5 |  |  |  |  |  |  | 
16 | O=c1[nH]c2ccccc2c(=O)n1/N=C\c1ccccc1O | > 100 |  | > 100 | > 100 | > 100 |  | > 100 | > 100 |  |  |  |  |  |  | 
17 | COc1cc2c(cc1OCCN1CCN(CCOc3cc4c(cc3OC)C(=O)N3CCC[C@H]3C=N4)CC1)N=C[C@@H]1CCCN1C2=O | > 100 |  | > 86.8 | > 100 | > 75.3 | > 82.1 | > 100 | > 89.7 |  |  |  |  |  |  | 
18 | N#CC(c1cc(Cl)ncn1)c1nc2cc(C(F)(F)F)ccc2s1 (configuration not stated) | > 100 |  | 8.9 | 12.3 | 18.7 | 3.61 | 17.8 | 17.1 |  |  |  |  |  |  | 
19 | Cc1c(-c2ccccc2)oc(=O)c2ccccc12 | > 100 | 37.8 | 56.4 | 34.6 | 51.9 | 33.2 |  | 42.2 |  |  |  |  |  |  | 

Row | SMILES | TGI [1] [µM] | TGI [2] [µM] | TGI [3] [µM] | TGI [4] [µM] | TGI [5] [µM] | TGI [6] [µM] | TGI [7] [µM] | TGI [8] [µM] | GI50 [1] [µM] | GI50 [3] [µM] | GI50 [4] [µM] | GI50 [5] [µM] | GI50 [6] [µM] | GI50 [7] [µM] | GI50 [8] [µM]
20 | Oc1ccccc1/C=N/c1nc(-c2ccccc2)cs1 | > 100 |  | 34.4 | > 100 | > 100 | 62.6 | 40 | > 100 | 77.5 | 12.4 | 58.2 | 51 | 25.4 | 14 | 28.5
21 | N#Cc1cc2c(n(C3OC(CO)C(O)C(O)C3O)c1=S)CCC2 (configuration not stated) | > 100 | > 100 | > 100 | > 100 | > 100 | > 100 |  | > 100 |  |  |  |  |  |  | 
22 | CCOC(=O)CC1C(C(=O)OCC)=Cn2c([nH]c3cccc4cccc2c43)=C1C(=O)OCC (configuration not stated) | > 100 | > 100 | > 100 | > 100 | > 100 |  | > 100 | > 100 |  |  |  |  |  |  | 
23 | CCCCCCCCCCCCCCCCOC[C@H](COC(c1ccccc1)(c1ccccc1)c1ccccc1)O[P+](=S)OC (some centres not stated) | > 100 |  | > 100 | > 100 | > 100 | > 100 | > 100 | > 100 |  |  |  |  |  |  | 
24 | COc1cc(COC(=O)N(C)[C@@H](Cc2ccccc2)C(=O)O)c([N+](=O)[O-])cc1OC | > 100 | > 100 | > 100 | > 100 | > 100 |  | > 100 | > 100 |  |  |  |  |  |  | 
25 | CN(CC(=O)O)c1ncc2c(n1)-c1ccccc1CC2 | > 100 |  | > 100 | > 100 | > 100 | > 100 | > 100 | > 100 |  |  |  |  |  |  | 
26 | O=C(O)C1C2OC(C(Br)C2Br)C1C(=O)O (configuration not stated) | > 100 |  | > 100 | > 100 | > 100 | > 100 | > 100 | > 100 |  |  |  |  |  |  | 
27 | CCCCCCCCCCCCCCCC[N+](C)(C)CCl | 17.2 | 3.18 | 4.98 | 3.82 |  |  | > 100 | 3.04 |  |  |  |  |  |  | 
28 | c1csc(-c2cc(-c3ccsc3)cs2)c1 | > 100 | > 100 | > 100 | > 100 | > 100 |  | > 100 | > 100 |  |  |  |  |  |  | 
29 | O=C(Nc1nnc(-c2ccccc2)o1)C(SC(=S)N1CCCC1)c1ccccc1 (configuration not stated) | > 100 |  | 79.5 | > 100 | > 100 | 77.8 | > 100 | > 100 |  |  |  |  |  |  | 
30 | CC(CSc1nc2c(c(=N)n1-c1ccccc1)c(=S)n(-c1ccccc1)c(=S)n2-c1ccccc1)CN(C)C (configuration not stated) | 3.03 | 2.7 | 3.07 |  | 5.6 | 2.83 | 8.1 | 3.28 |  |  |  |  |  |  | 
31 | O=C(CN1CCCC1)Nc1ccc2c(c1)C1Oc3ccccc3CC1CO2 (configuration not stated) | > 100 | 34.9 | > 100 |  | > 100 | 96.5 | 35.6 | 56.5 |  |  |  |  |  |  | 
32 | CC1(c2ccc(Cl)cc2)c2ccccc2C(=O)N1CCCN1C(=O)c2ccccc2C1=O (configuration not stated) | > 100 |  | 37.6 | > 100 | 50.8 |  | > 100 | > 100 |  |  |  |  |  |  | 
33 | CC(C)(C)C(=O)C(N)C(=O)C(C)(C)C | > 100 | > 100 | > 100 |  | > 100 | > 100 | > 100 | > 100 |  |  |  |  |  |  | 
34 | CC(C)(C)c1cc(C(C)(C)C)c2sc(=O)oc2c1O | 32.8 |  | 29.8 | 33.2 | 27.9 | 26.7 |  | 27.8 |  |  |  |  |  |  | 
35 | Cc1cc(S(=O)(=O)NC2=NCc3c(F)cccc3N2)c(S)cc1Cl | > 100 | > 100 | > 100 |  | > 100 | > 100 | > 100 | > 100 |  |  |  |  |  |  | 
36 | COc1cc(-c2cc(OC)c(OC)c3ccc(Br)cc23)c2cc(Br)ccc2c1OC | 93.4 | 92 | 24.9 | > 100 |  | 72.1 | > 100 | 37.7 |  |  |  |  |  |  | 
37 | Cc1cn([C@H]2CN(O)C[C@@H](CO)O2)c(=O)[nH]c1=O | > 100 | > 100 | > 100 |  | > 100 |  | > 100 | > 100 |  |  |  |  |  |  | 
38 | CN(C)CCCNC(=O)N/N=C/c1ccccn1 | > 10 | > 10 | > 10 | > 10 | > 10 | > 10 | > 10 |  |  |  |  |  |  |  | 

— PubChem BioAssay (NCI)
